Assay results published in publication PMC9820345, “Metal Complexes of a 5-Nitro-8-Hydroxyquinoline-Proline Hybrid with Enhanced Water Solubility Targeting Multidrug Resistant Cancer Cells” (International Journal of Molecular Sciences, 2022).

What was measured:
[1] = Stability of the isolated complexes in aqueous solution at pH 7.4 (UV-vis over 72 h); format: physicochemical
Protocol: The stability of the isolated RhCp* and RuCym complexes in aqueous solution at pH 7.4 was assayed via recording the UV-vis spectra over 72 h (Figure S18). […] Then, the behaviour of the complexes was monitored between pH 2 and 12 by ^1H NMR spectroscopy (see representative spectra of the RuCym complex in Figure 8) in chloride-free medium, as this halide ion can act as a competitor ligand. There was no indication for the dissociation of the complexes (i.e., liberation of unbound ligand or metal precursor) in the studied pH range or even at pH 1 (Figure S19), showing their fairly high stability in solution.
An Agilent Cary 8454 diode array spectrophotometer (Santa Clara, CA, USA) was used to obtain UV-vis spectra in the wavelength range 200–1000 nm, while spectra were recorded for the Fe(II)-containing samples using an Avantes (Avantes B.V., Apeldoorn, The Nederlands) AvaSpec-ULS2048CL-EVO spectrometer with an AvaLight-DHc light source and FDP-7UVIR200-2-VAR transmission dip probe. The titrations for the Fe(II)-containing samples were performed in a laboratory glove box (GP(Campus), Jacomex) (O2 content ≤ 1 ppm). The path length (ℓ) was 1 cm in most cases (the actual ℓ is always indicated in the legends of the figures). The concentrations of the ligands and complexes were between 40 and 200 µM, and 0.2 M KNO3 for the organometallic complexes or 0.1 M KCl for the Fe(II/III), Cu(II), and Zn(II) complexes were used to adjust the constant ionic strength. For HSA containing samples, complex concentrations were 50 µM, and 0.5, and 2 equiv. biomolecules were added for kinetic studies, respectively. For HSA model containing samples, complex concentrations were 50 µM, and the model concentrations were 0–150 µM and 0–500 µM, respectively, and the pH was 7.4 (PBS’). Spectra were always background and baseline corrected. The computer program HypSpec was used to obtain stability constants. Hydrolysis constants of the Fe(III), Fe(II), RuCym, and RhCp* species were included in the speciation models (see Table S4 with the data taken from References).

[2] = system: Ac-Phe-His-Ala-NH2 (FHA); assay: Mixed-ligand adduct formation with His-containing oligopeptide FHA; format: binding
Protocol: (§1) According to numerous papers on the binding of half-sandwich organometallic complexes to HSA [35, 36], surface exposed histidine (His) side chains are the most feasible coordinating moieties. […] The equilibrium could be reached within 3–10 min in the case of the RhCp* complex on the basis of the UV-vis spectral changes (Figure S28), and similar conditional constants (logK’) were computed with these model compounds for the formation of mixed-ligand RhCp* complexes; namely logK’ 5.00 ± 0.1, 4.4 ± 0.1, 5.1 ± 0.1 were obtained in the case of FHA, AHA, and mim, respectively. […] In the case of the oligopeptides, formation of isomers was detected which might be explained by the existence of two chiral centers, namely the metal ion and His-CHα. The adduct formation of the RuCym complex with mim was quantitative, hindering the determination of the logK’ value (meaning logK’ > 5.5). […]
(§2) An Agilent Cary 8454 diode array spectrophotometer (Santa Clara, CA, USA) was used to obtain UV-vis spectra in the wavelength range 200–1000 nm, while spectra were recorded for the Fe(II)-containing samples using an Avantes (Avantes B.V., Apeldoorn, The Nederlands) AvaSpec-ULS2048CL-EVO spectrometer with an AvaLight-DHc light source and FDP-7UVIR200-2-VAR transmission dip probe. […]

[3] = system: Ac-Ala-His-Ala-NH2 (AHA); assay: Mixed-ligand adduct formation with His-containing oligopeptide AHA; format: binding
Protocol: as §1, §2

[4] = Mixed-ligand adduct formation with N-methylimidazole; format: binding; settings: mim, pH 7.4
Protocol: as §1, §2

[5] = biological target: T1, HSA site II (Homo sapiens, UniProt P02768); assay: HSA dansylglycine (DG) site marker displacement by fluorometry (site II); format: binding; settings: 1 µM HSA, 1 µM DG, pH 7.4 (PBS')
T1 construct: purchased Sigma-Aldrich (Darmstadt, Germany) A8763
Protocol: Therefore, tryptophan (Trp-214) quenching and dansylglycine (DG) site marker displacement experiments were conducted by fluorometry to obtain information about the binding at sites I and II, respectively, using the same approach reported in our former paper. A representative spectral series is shown in Figure 9a for the Trp-214 quenching experiment, upon the addition of the RhCp*–HQNO2-L-Pro complex and the computed binding constants (logKQ’ and logKDG’) which can be found in Figure 9b, in addition to the corresponding data for the HQCl-L-Pro complexes.
A Fluoromax (Horiba Jobin Yvon, Longjumeau, France) spectrofluorometer was utilized for fluorescence measurements using a 1 cm × 1 cm quartz cuvette. Samples contained 1 µM HSA or DG and 1 µM HSA at pH 7.4 (PBS’), and the complex concentration was varied between 0 and 53 µM. The measurements were carried out on individual samples. Excitation wavelengths were 295 nm for Trp-214 quenching, and 335 nm for the DG displacement studies, respectively. The calculated conditional stability constants for HSA–complex species were obtained using the computer program HypSpec. Calculations always were based on data obtained from at least two independent measurements. Self-absorbance and inner filter effect had to be taken into account, and corrections were made as was described in our former works.

[6] = pH 7.4, 1H NMR peak integrals, 24 h incubation

T1 sequence (P02768 25-609): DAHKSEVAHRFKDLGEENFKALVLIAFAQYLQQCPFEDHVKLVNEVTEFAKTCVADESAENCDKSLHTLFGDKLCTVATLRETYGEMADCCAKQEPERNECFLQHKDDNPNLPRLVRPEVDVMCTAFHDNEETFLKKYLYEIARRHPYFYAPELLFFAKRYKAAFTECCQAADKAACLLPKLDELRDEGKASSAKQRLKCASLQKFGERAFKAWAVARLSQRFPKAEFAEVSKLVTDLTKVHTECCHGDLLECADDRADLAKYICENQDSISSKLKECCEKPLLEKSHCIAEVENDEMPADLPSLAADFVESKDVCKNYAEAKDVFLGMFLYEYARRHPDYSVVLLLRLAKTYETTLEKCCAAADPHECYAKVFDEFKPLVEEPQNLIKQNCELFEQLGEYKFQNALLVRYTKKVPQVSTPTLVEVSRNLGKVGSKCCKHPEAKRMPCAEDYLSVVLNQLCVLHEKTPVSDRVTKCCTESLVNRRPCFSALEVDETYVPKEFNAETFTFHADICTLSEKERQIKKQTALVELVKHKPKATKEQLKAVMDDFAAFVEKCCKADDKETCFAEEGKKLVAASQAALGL

Cc1ccc(C(C)C)cc1.O=C(O)[C@@H]1CCC[NH+]1Cc1cc([N+](=O)[O-])c2ccc[n+]3c2c1[O][Ru-]3[Cl].[Cl-] [RuCym-HQNO2-L-Pro, [RuCym(HQNO2-L-Pro)Cl]Cl]
UV-vis spectral changes in aqueous solution ([1]; first 24 h): no measurable changes
conditional constant logK' of adduct [2, 6]: 3.9 ± 0.2
conditional constant logK' of adduct [3, 6]: 5.1 ± 0.2
conditional constant logK' of adduct ([4]; 1H NMR, 24 h incubation, adduct formation quantitative): > 5.5

O=C(O)[C@@H]1CCCN1Cc1cc([N+](=O)[O-])c2cccnc2c1O [HQNO2-L-Pro, (2S)-1-((8-hydroxy-5-nitroquinolin-7-yl)methyl)pyrrolidin-1-ium-2-carboxylate]
Kd ([5]; read-out: DG marker displacement constant logKDG' (converted)): 33.9 µM

CC1=C(C)[C](C)([Rh]([Cl])[O]c2c(C[NH+]3CCC[C@H]3C(=O)O)cc([N+](=O)[O-])c3cccnc23)C(C)=C1C.[Cl-] [RhCp*-HQNO2-L-Pro, [RhCp*(HQNO2-L-Pro)Cl]Cl]
UV-vis spectral changes in aqueous solution ([1]; after 48 h): minor spectral change
UV-vis spectral changes in aqueous solution ([1]; first 24 h): no measurable changes
conditional constant logK' of mixed-ligand complex ([2]; pH 7.4, UV-vis): 5.00 ± 0.1
conditional constant logK' of mixed-ligand complex ([3]; pH 7.4, UV-vis): 4.4 ± 0.1
conditional constant logK' of mixed-ligand complex ([4]; UV-vis): 5.1 ± 0.1
DG marker displacement constant logKDG' [5]: 5.6
